Key:
[1] = system: GABA transport in rat cerebrocortical NPMV (GAT-2/3); assay: [3H]GABA uptake in rat cerebrocortical native plasma membrane vesicles (NPMV) in the presence of 100 µM NNC-711; assay type: biochemical; settings: for modulation of the effect of Glu on GABA transport / cytosolic GABA level in rat cortical NPMV: 100 µM NNC-711 present
Procedure: (§1) Cerebral cortices of 4–6 weeks old male Wistar rats (Toxicoop, Hungary) and frozen human brain tissue samples (Hungarian Brain Tissue Bank, Budapest) were used to prepare NPMV fractions, that contain numerous membrane vesicles of different sizes and shapes, a few intact synaptosomes and free mitochondria. […] Afterward, preincubated solution was incubated with [^3H]GABA (10 nM, Amersham) and GABA (90 nM, Sigma) for 1 min. In case of [^3H]β-alanine uptake, incubation solution contained 100 nM [^3H]β-alanine (Amersham) and 900 nM β-alanine (Sigma). After the incubation, samples were immediately filtered through glass fiber filters and washed twice with ice-cold HEPES buffer. The [^3H]GABA level inside the plasma membrane vesicles was determined by liquid scintillation method. Although this method is generally used to measure GABA uptake, we applied it to follow GABA release due to the simplicity and reliability of the assay. We also determined GABA release by preloading [^3H]GABA into NPMV vesicles and measuring the [^3H]GABA level in the intracellular and extracellular milieu. […] Non-specific uptake was determined in the presence of 1 mM guvacine. The radioactivity of samples was counted in HiSafe 3 (Perkin Elmer) scintillation mixture.

[2] = system: acute rat hippocampal slices; assay: [3H]GABA efflux from acute rat hippocampal slices (microvolume superfusion); assay type: cell-based
Procedure: Radiolabeling of 400 µm thick acute slices was conducted in 200 µl of ACSF in a glass tube. […] To preferentially label the cytosolic over the vesicular pools, incubation of slices at 30°C lasted for 10 min [54]. Slices were washed with fresh ACSF containing GABA-T inhibitors, thereafter placed in a custom-built closed micro-volume (50 µl) chamber secured in a water bath thermostated at 30°C [55]. […] The superfusate was collected in 0.5 ml fractions. After washing for 10 min, 10 fractions were collected to define the basal release of radioactivity (‘pre-stimulus’). At this point, the hippocampal slice was exposed to 100 µM Glu for a period of 10 min (‘drug application’), followed by further 10 min of washing with ACSF (‘washout’). Radioactivity of each 0.5 ml fraction counted in 3 ml HiSafe 3 scintillation mixture was expressed as the percentage of the actual radioactivity content of the slice (fractional release). Fractional release data from individual slices were normalized to a first order exponential curve (obtained by fitting the pre-stimulus and the last 3 washout values). Normalized percent efflux data from fractions of ‘pre-stimulus’ (1–10 min) versus ‘drug application’ (11–20 min) periods were averaged and compared by statistical analysis.

[3] = system: hippocampus; settings: cited from earlier work
[4] = system: human NPMVs; assay: [3H]GABA uptake in human brain tissue NPMVs; assay type: biochemical; settings: 100 µM NNC-711; hippocampus, cortical gray and white matter, spinal cord white matter, choroid plexus, corpus callosum
Procedure: as §1

[5] = system: rat hippocampus; assay: In vivo microdialysis and HPLC amino acid detection in the hippocampus; settings: for [Arginine]o in the rat hippocampus in vivo: control for non-specific release, n = 10; for [GABA]o in the rat hippocampus in vivo: microdialysis application, t-PDC applied together with NNC-711, n = 10
Procedure: Male Wistar rats (300–400 g) were anaesthetized with halothane (1% in air) and microdialysis probes were implanted into the ventral hippocampus (A: −5.0, L: 5.0, V: −8.0) as described previously. To minimize tissue damage, the final position of the probes was reached slowly, in not less than 20 min. Perfusion of artificial cerebrospinal fluid, containing 144 mM NaCl, 3 mM KCl, 1 mM MgCl2, 2 mM CaCl2 (pH 7.4), was performed at a rate of 1 µl/min. The dialysate samples during 20 min were stored at −20°C. To establish the background amino acid concentration, each experiment started with the collection of three control samples with <10% variation. NNC-711 was applied bilaterally for 60 min followed by the simultaneous application of t-PDC and NNC-711 for 60 min. Concentration of amino acids was measured by pre-column derivatization of primary amino acids with orthophthalaldehyde (OPA, Sigma). Derivatization was performed at pH 10.4 in the presence of mercaptoethanol. OPA-derivatized amino acids were detected with fluorescence detector excitation wavelength 340 nm and emission wavelength 440 nm. Because of the instability of OPA derivatives, the HPLC technique was automated on an HP 1100 series system. Amino acids were separated on HP Hypersyl ODS reversed-phase columns (200×2.1 mm) filled with 5 µm C-18 spherical packing material. Eluent A was 0.1 M phosphate buffer containing 0.5% (vol/vol) tetrahydrofuran (Merck), pH 5.6, while eluent B contained 70% acetonitrile (Merck) in eluent A, pH 5.6. The gradient profile was: 12% B at 0 min, 23% B at 9 min, 36% B at 18 min, 100% B at 20 min, 100% B at 25 min and 12% B at 30 min. The column equilibration time was 8 min. External standards of 10 µM amino acids were injected after every 20 samples. Chromatograms were evaluated with HP Chem-Station software. Concentration of GABA measured in dialysate samples collected during drug applications were related to averaged GABA concentration of control samples collected for an hour prior to drug application and were given as percent changes.

[6] = system: rat cortex NPMVs; assay: [3H]GABA release from NPMV vesicles preloaded with [3H]GABA; assay type: biochemical; settings: 10 min incubation with Glu, n = 3
Procedure: as §1

[7] = system: rat cerebrocortical NPMV; assay: Total extracellular GABA by HPLC in rat cerebrocortical NPMV samples; assay type: biochemical; settings: 300 µM Glu, n = 3
[8] = system: GAT-2/3; assay: [3H]β-alanine uptake in rat cerebrocortical NPMV fraction; assay type: biochemical; settings: n = 3
Procedure: as §1

[9] = system: Glu decarboxylase (GAD); assay: NMR (13C-HSQC) of [13C]GABA formation from [13C]Glu in rat cortical NPMV fraction; assay type: biochemical
Procedure: NPMV samples for NMR experiments were prepared as described before. NPMV fractions from the whole cortex were homogenized in 1 ml HEPES buffer containing 300 µM [^13C]Glu and were incubated at 30°C for 30 min. The homogenate was then centrifuged at 3500 g for 15 min. The supernatant (extracellular fraction) was stored and the pellet (intracellular fraction) was suspended in 1 ml HEPES buffer and frozen (−80°C) and thawed 3 times. In the NMR experiments on brain slices, 13 hippocampal slices were put in a 2 ml centrifuge tube and the ACSF was replaced with 1 ml ACSF containing 300 µM [^13C]Glu. The slices were incubated at 37°C for 30 min. Afterwards, the samples were frozen (−80°C) and thawed 3 times.
NMR experiments were carried out at 30°C on a Varian NMR SYSTEM (600 MHz for ^1H) four-channel spectrometer using a 5 mm indirect detection triple resonance (^1H^13C^15N) z-axis gradient probe. Samples (200 µl) were placed into 5 mm Shigemi NMR tubes. Gradient-enhanced ^1H/^13C heteronuclear correlation spectra (^13C-HSQC) were acquired with a ^1H spectral width of 9600 Hz and 2048 complex points, zero-filled to a total of 4096. […] Gaussian and exponential weighting functions were applied in the F2 dimension, while the indirectly detected dimensions were Gaussian weighted only. […]

[10] = system: acute rat hippocampal slices; assay: [3H]GABA efflux from acute rat hippocampal slices (microvolume superfusion); assay type: cell-based; settings: for alteration of [GABA]o during blockade of GAT-2/3: no exogenous Glu, n = 5
[11] = system: GAT-3; set-up: method as in PMID 17408599, PMID 16274841; settings: cited from earlier work
[12] = 100 µM SNAP-5114, nominally Mg2+-free ACSF

Question: With `N[C@H](C(=O)O)[C@H](OCc1ccccc1)C(=O)O` (racemic) [TBOA, DL-threo-β-benzyloxyaspartic acid] as the compound, how does the “modulation of the effect of Glu on GABA transport / cytosolic GABA level in rat cortical NPMV” value [1] read?
Answer: Its value is “further reduced”.

Question: What about the “elevation of [GABA]o ([3H]GABA efflux)” value ([2]; Glu-induced release in the presence of 100 µM TBOA, n = 4) of the same compound?
Answer: Its value is 123±10 % of pre-stimulus control.

Question: What about the “elevation of [GABA]o ([3H]GABA efflux)” value ([2]; Glu-induced release in the presence of 1000 µM TBOA, n = 4) of the same compound?
Answer: The value was 109±1 % of pre-stimulus control.

Question: And the “neuronal damage after in vivo administration in the hippocampus” value [3]?
Answer: Its value is “induce neuronal damage in the CA1 and the dentate gyrus”.

Question: With `O=C(O)[C@@H]1CN[C@@H](C(=O)O)C1` (relative stereo) [t-PDC, L-trans-pyrrolidine-2,4-dicarboxylate] as the compound, how does the “effect on GABA transport in rat cortical NPMV” value ([1]; 10 min preincubation, 100 µM NNC-711 (Figure 1B)) read?
Answer: The value was “able to affect GABA transport”.

Question: And the “inhibition of [3H]GABA uptake in human brain tissue samples” value [4]?
Answer: The value was “able to inhibit [^3H]GABA uptake in all investigated areas”.

Question: What about the “neuronal damage after in vivo administration in the hippocampus” value [3] of the same compound?
Answer: Its value is “did not produce cell death”.

Question: What about the “neuronal damage in vivo” value ([3]; very high concentration (25–100 mM)) of the same compound?
Answer: The value was “did not evoke neuronal damage in vivo”.

Question: What about the “[Arginine]o in the rat hippocampus in vivo” value [5] of the same compound?
Answer: The value was 94±32 % of control.

Question: And the “[GABA]o in the rat hippocampus in vivo” value [5]?
Answer: The value was 233±33 % of control.

Question: For `N[C@@H](CCC(=O)O)C(=O)O` [Glu, L-glutamate], which IC50 ([1]; 10 min preincubation, 100 µM NNC-711, rat cerebrocortical NPMV, n = 7, read-out: IC50, inhibition of [3H]GABA uptake) is on record?
Answer: The IC50 was 11 ± 0.1 µM.

Question: And the “inhibition of GABA uptake” value ([1]; preincubation of vesicles with Glu for 10 minutes, in the presence of NNC-711)?
Answer: Its value is 52%.

Question: And the “inhibition of [3H]GABA uptake in human brain tissue samples” value [4]?
Answer: The value was “able to inhibit [^3H]GABA uptake in all investigated areas”.

Question: What about the IC50 [6] of the same compound?
Answer: The IC50 was 13.1 ± 1.6 µM.

Question: And the “increase of the extracellular GABA level (HPLC)” value ([7]; SCB-treated rats)?
Answer: Its value is 35±6%.

Question: And the “increase of the extracellular GABA level (HPLC)” value ([7]; control rats)?
Answer: Its value is 46±3%.

Question: What about the “effect on cytosolic β-alanine level ([3H]β-alanine uptake)” value [8] of the same compound?
Answer: Its value is “reduce cytosolic level”.

Question: What about the “elevation of [GABA]o ([3H]GABA efflux)” value ([2]; 100 µM Glu in low-[Ca2+]/high-[Mg2+] buffer, n = 5) of the same compound?
Answer: Its value is 148.3±15.5 % of pre-stimulus control.

Question: What about the “elevation of [GABA]o ([3H]GABA efflux)” value ([2]; 100 µM Glu in the presence of glutamate receptor antagonists (DL-AP5 50 µM, CNQX 10 µM, (S)-MCPG 500 µM), n = 7) of the same compound?
Answer: Its value is 128.5±13.4 % of pre-stimulus control.

Question: What about the “elevation of [GABA]o ([3H]GABA efflux)” value ([2]; 100 µM Glu, control conditions, n = 6) of the same compound?
Answer: The value was 149±14 % of pre-stimulus control.

Question: What about the “share of average [GABA]o increase remaining” value ([2]; Glu-induced release in the presence of Glu receptor antagonists) of the same compound?
Answer: The value was 58%.

Question: For `O=C(O)C1=CCCN(CCON=C(c2ccccc2)c2ccccc2)C1` [NNC-711, 1,2,5,6-tetrahydro-1-[2-[[(diphenylmethylene)amino]oxy]ethyl]-3-pyridinecarboxylic acid], which “reduction of the [3H]GABA uptake” value ([1]; 100 µM NNC-711, NPMV fractions, n = 51) is on record?
Answer: The value was 86±3%.

Question: And the “[Arginine]o in the rat hippocampus in vivo” value [5]?
Answer: Its value is 100±25 % of control.

Question: And the “[GABA]o in the rat hippocampus in vivo” value [5]?
Answer: Its value is 160±18 % of control.

Question: With `NNC(N)=O` [SCB, semicarbazide] as the compound, how does the “modulation of the effect of Glu on GABA transport / cytosolic GABA level in rat cortical NPMV” value [1] read?
Answer: The value was “did not affect [^3H]GABA release”.

Question: And the “effect on [13C]GABA formation” value ([9]; SCB treatment, rat cortical NPMV fraction)?
Answer: The value was “completely blocked”.

Question: What about the “elevation of [GABA]o ([3H]GABA efflux)” value ([2]; Glu-induced release, slices of SCB-treated animals (100 mg/kg i.p., 2 mM present), n = 7) of the same compound?
Answer: Its value is 145±14 % of pre-stimulus control.

Question: Which “reduction of [3H]GABA release compared to the pre-application period” value [10, 12] does the source give for `COc1ccc(C(OCCN2CCC[C@H](C(=O)O)C2)(c2ccc(OC)cc2)c2ccc(OC)cc2)cc1` [SNAP-5114, 1-[2-[tris(4-methoxyphenyl)methoxy]ethyl]-(S)-3-piperidinecarboxylic acid] here?
Answer: The value was 10%.

Question: And the “alteration of [GABA]o during blockade of GAT-2/3” value [10, 12]?
Answer: Its value is 90±4 % of pre-application control.

Question: What about the “alteration of [GABA]o during blockade of GAT-2/3” value ([10]; 100 µM SNAP-5114, normal ACSF) of the same compound?
Answer: Its value is 100±6 % of pre-application control.

Question: And the “elevation of [GABA]o ([3H]GABA efflux)” value ([2]; Glu-induced release in the presence of SNAP-5114, n = 4)?
Answer: Its value is 109±4 % of pre-stimulus control.

Question: Which “share of extracellularly applied [13C]Glu converted to [13C]GABA and released” value ([9]; 300 µM [13C]Glu, 30 min, rat cortical NPMV) does the source give for `[15NH2][13C@@H]([13CH2][13CH2][13C](=O)O)[13C](=O)O` [[^13C]Glu, [U-^13C/^15N]Glu] here?
Answer: The value was roughly 5%.

Question: Which “GAT-3 expression in the hippocampus” value [11] does the source give for `CN1C(=O)CC(=O)N(c2ccccc2)c2cc(Cl)ccc21` [clobazam] here?
Answer: The value was “up-regulate GAT-3 expression”.

Question: Which “GAT-3 expression in the hippocampus” value [11] does the source give for `CC[C@@H](C(N)=O)N1CCCC1=O` [levetiracetam] here?
Answer: The value was “up-regulate GAT-3 expression”.
